According to patent US20220395003A1, “Methods for Use in Food Processing and Preservation” (priority 2019, published 2022):

What was measured:
[1] = system: microbial growth on the surface of beef carcass; assay: Microbiological analysis of low and high surface areas of beef carcass (Example 2)
Experimental: A 0.3% aqueous solution of chitosan formed as described above having 0.01% sodium sulfite and 0.1% acetic acid was poured into a commercial dry vapor steam cleaning unit and allowed to equilibrate for about 15 minutes. The steam was applied to a beef carcass by the method of […] as disclosed in U.S. Pat. No. 9,149,036 which is incorporated herein by reference in its entirety. For comparison, a beef carcass was sprayed with an aqueous solution of about 3% acetic acid by standard methods known in the art. Prior to applying the chitosan steam or the aqueous acetic acid solution, the beef carcasses were washed thoroughly with hot water. The beef carcasses were maintained at 4 degrees centigrade. Microbiological analysis was performed on the surface of the carcasses at pretreatment and at 1, 24, and 72 hours after treatment. […] The study in Example 1 was repeated, applying the previously-described 0.3% chitosan, acetic acid, and sodium sulfite solution on a low surface area and a high surface area of a beef carcass.

[2] = system: microbial growth on the surface of beef carcasses; assay: Microbiological analysis of beef carcass surface after treatment (Example 1)
Experimental: A 0.3% aqueous solution of chitosan formed as described above having 0.01% sodium sulfite and 0.1% acetic acid was poured into a commercial dry vapor steam cleaning unit and allowed to equilibrate for about 15 minutes. The steam was applied to a beef carcass by the method of […] as disclosed in U.S. Pat. No. 9,149,036 which is incorporated herein by reference in its entirety. For comparison, a beef carcass was sprayed with an aqueous solution of about 3% acetic acid by standard methods known in the art. Prior to applying the chitosan steam or the aqueous acetic acid solution, the beef carcasses were washed thoroughly with hot water. The beef carcasses were maintained at 4 degrees centigrade.

CC(=O)O [Water wash + acetic acid, acetic acid]
microbial growth ([1]; High (A) surface, 1 h): 1.59 log colony forming units | microbial growth ([1]; High (A) surface, 48 h): 1.35 log colony forming units | microbial growth ([1]; High (A) surface, 168 h): 1.49 log colony forming units | microbial growth ([1]; High (B) surface, 1 h): 2.03 log colony forming units | microbial growth ([1]; High (B) surface, 48 h): 1.80 log colony forming units | microbial growth ([1]; High (B) surface, 168 h): 1.77 log colony forming units | microbial growth ([1]; High (C) surface, 1 h): 1.88 log colony forming units | microbial growth ([1]; High (C) surface, 48 h): 1.65 log colony forming units | microbial growth ([1]; High (C) surface, 168 h): 1.43 log colony forming units | microbial growth ([1]; Low (A) surface, 1 h): 1.53 log colony forming units | microbial growth ([1]; Low (A) surface, 48 h): 1.09 log colony forming units | microbial growth ([1]; Low (A) surface, 168 h): 0.00 log colony forming units | microbial growth ([1]; Low (B) surface, 1 h): 1.73 log colony forming units | microbial growth ([1]; Low (B) surface, 48 h): 1.57 log colony forming units | microbial growth ([1]; Low (B) surface, 168 h): 1.45 log colony forming units | microbial growth ([1]; Low (C) surface, 1 h): 0.43 log colony forming units | microbial growth ([1]; Low (C) surface, 48 h): 0.94 log colony forming units | microbial growth ([1]; Low (C) surface, 168 h): 1.35 log colony forming units | microbial growth ([2]; Flank, 0 h (pretreatment), 4 degrees centigrade): 2.60 log colony forming units | microbial growth ([2]; Flank, 1 h after treatment): 2.10 log colony forming units | microbial growth ([2]; Flank, 24 h after treatment): 2.10 log colony forming units | microbial growth ([2]; Flank, 72 h after treatment): 2.00 log colony forming units | microbial growth ([2]; Loin, 0 h (pretreatment), 4 degrees centigrade): 3.70 log colony forming units | microbial growth ([2]; Loin, 1 h after treatment): 2.40 log colony forming units | microbial growth ([2]; Loin, 24 h after treatment): 1.80 log colony forming units | microbial growth ([2]; Loin, 72 h after treatment): 2.00 log colony forming units
